Here are results for nine compounds from EP1148783B1, “CONVERTING COX INHIBITION COMPOUNDS THAT ARE NOT COX-2 SELECTIVE INHIBITORS TO DERIVATIVES THAT ARE COX-2 SELECTIVE INHIBITORS” (priority 1999, dated 2000).

Where a chain is given by its changes, count along the chain named. Like-named read-outs stand apart in the source and are kept apart here.

In test [1] the target is T1, COX-2 (Homo sapiens, UniProt P35354).
T1 sequence (P35354 18-604): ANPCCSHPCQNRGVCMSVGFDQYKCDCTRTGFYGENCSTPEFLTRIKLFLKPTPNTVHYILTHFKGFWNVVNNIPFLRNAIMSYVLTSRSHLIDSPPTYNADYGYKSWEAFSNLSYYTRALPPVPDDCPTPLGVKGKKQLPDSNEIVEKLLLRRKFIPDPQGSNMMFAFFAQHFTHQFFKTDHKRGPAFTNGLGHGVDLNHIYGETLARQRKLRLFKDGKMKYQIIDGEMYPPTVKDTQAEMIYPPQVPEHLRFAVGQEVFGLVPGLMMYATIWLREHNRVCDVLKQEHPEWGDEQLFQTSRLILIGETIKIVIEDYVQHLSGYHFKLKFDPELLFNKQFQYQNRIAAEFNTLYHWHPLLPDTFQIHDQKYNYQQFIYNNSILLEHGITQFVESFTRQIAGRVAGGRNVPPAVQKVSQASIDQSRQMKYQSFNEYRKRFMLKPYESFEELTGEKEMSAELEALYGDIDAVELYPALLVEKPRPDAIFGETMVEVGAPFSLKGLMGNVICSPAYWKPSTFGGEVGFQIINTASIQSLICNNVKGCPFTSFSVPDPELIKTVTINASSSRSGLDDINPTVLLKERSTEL
The experiment in a line: TLC assay of cyclooxygenase inhibition, purified human COX-2. It is filed as biochemical.

Another test concerns rat foot pad edema. In words: Rat foot pad edema model (carrageenan). It is filed as in vivo, male Sprague-Dawley rats. Particulars: 2 mg/kg orally, corrected for 0.1 mL injection volume.
For test [2], the target named is T2, Val509lleArg499HisVal420lle mutant (VRV mutant) (Mus musculus, UniProt Q05769, R499H/V420I/V509I).
T2 sequence (Q05769 18-604 V420I/R499H/V509I): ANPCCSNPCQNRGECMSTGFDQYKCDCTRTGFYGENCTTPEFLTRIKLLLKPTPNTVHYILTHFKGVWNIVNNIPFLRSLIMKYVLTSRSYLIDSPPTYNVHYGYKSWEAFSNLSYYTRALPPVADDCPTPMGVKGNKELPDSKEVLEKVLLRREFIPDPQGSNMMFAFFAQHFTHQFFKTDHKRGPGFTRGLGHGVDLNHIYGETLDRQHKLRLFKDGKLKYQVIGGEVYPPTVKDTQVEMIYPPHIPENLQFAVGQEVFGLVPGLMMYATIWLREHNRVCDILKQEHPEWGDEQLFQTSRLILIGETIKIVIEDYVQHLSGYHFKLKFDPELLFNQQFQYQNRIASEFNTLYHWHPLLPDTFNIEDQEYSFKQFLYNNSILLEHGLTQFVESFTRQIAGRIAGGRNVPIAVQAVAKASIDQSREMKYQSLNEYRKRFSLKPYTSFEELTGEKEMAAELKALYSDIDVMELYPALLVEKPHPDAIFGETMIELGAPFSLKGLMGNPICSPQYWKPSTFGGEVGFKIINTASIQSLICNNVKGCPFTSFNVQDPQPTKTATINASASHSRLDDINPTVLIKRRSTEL

Test [3] concerns the target T3, murine COX-2 mutant Tyr341Ala (Mus musculus, UniProt Q05769, Y341A).
T3 sequence (Q05769 18-604 Y341A): T2 sequence (Q05769 18-604 V420I/R499H/V509I) with Y324A, I403V, H482R, I492V

The next test concerns the target T4, ovine COX-1 (Ovis aries, UniProt P05979).
T4 construct: COX-1 was purified from ram seminal vesicles obtained from Oxford Biomedical Research, Inc; tissue Oxford Biomedical Research, Inc. (Oxford, Michigan); host or cells: ram seminal vesicles
T4 sequence (P05979 25-600): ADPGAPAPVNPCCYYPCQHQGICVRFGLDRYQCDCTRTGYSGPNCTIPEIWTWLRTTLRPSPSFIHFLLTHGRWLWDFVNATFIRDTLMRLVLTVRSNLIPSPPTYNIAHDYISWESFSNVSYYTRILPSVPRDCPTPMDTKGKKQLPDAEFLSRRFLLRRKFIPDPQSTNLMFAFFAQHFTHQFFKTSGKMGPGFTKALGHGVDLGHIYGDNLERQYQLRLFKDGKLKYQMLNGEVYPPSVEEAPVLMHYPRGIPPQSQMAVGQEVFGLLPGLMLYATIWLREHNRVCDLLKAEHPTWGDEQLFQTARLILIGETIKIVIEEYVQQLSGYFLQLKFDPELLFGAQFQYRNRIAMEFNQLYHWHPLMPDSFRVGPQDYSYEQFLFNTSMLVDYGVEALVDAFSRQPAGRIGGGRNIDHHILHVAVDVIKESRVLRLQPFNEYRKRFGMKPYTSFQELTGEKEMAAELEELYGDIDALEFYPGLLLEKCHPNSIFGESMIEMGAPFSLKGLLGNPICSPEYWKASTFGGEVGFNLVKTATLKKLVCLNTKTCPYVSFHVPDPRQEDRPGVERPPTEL
In words: TLC assay of cyclooxygenase inhibition, purified ovine COX-1. It is filed as biochemical. The note with it: Table 2, amide derivatives; ovine COX-1 (44 nM), 20 min, 1-14C-AA at 37°C for 30 sec.

Test [4] deals with T1, COX-2. Particulars: background / literature statement; cited from earlier work.
For a further test, the target named is COX-1 (Homo sapiens, UniProt P23219). The note with it: background / literature statement; cited from earlier work.

Broadly, the IC50 is the concentration at which inhibition is half-maximal. Read a high IC50 as lower potency.

COX-1, sequence (P23219 24-599): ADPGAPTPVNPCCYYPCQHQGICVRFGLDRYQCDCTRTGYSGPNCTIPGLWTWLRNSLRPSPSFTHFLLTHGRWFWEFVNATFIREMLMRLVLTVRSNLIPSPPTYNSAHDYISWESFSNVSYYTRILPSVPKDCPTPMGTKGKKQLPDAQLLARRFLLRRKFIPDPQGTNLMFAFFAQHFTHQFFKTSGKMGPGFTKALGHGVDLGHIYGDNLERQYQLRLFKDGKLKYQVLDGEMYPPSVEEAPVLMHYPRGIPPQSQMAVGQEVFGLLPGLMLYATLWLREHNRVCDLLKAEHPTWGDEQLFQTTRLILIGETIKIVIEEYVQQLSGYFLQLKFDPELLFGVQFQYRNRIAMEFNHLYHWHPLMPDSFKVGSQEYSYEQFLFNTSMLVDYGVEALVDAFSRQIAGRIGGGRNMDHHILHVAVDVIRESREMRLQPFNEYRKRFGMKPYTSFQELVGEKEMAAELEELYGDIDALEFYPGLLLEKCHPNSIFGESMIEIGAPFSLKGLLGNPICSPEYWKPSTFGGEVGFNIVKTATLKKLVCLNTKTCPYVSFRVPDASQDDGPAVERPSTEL
Method for rat foot pad edema: Rats were injected with carrageenan, which triggers a rapid edema (swelling) within 3 hours that can be quantitatively measured by volume displacement.
In these experiments, the carrageenan that was injected was in 0.1 mL of aqueous saline so that 0.1 mL volume increase was due to the injection alone. […] More specifically, male Sprague-Dawley rats (150 g) received a subplantar injection of carrageenan (0.1 mL of a 1% suspension of carrageenan in sterile aqueous saline) into the right hind footpad while mildly anesthetized with methoxyflurane. […] The ipsilateral footpad volume (mL) was measured with a water displacement plethysmometer at time = 3 hours post-injection and compared to the time = 0 pre-injection paw volume for edema calculations.

As to `Cc1nc(-c2ccccc2)c(-c2ccc(S(N)(=O)=O)cc2)o1` [2-methyl-4-phenyl-5-sulfonamidophenyl oxazole, reference compound], at COX-2 [1] (Table 1, ester derivatives, Ratio of IC50 (COX-1):IC50 (COX-2)), the Selectivity is greater than 1100.

As for `COc1ccc2c(c1)c(CC(=O)O)c(C)n2C(=O)c1ccc(Cl)cc1` [Compound 1, Indomethacin], the reduction in inflammation entry in the test on rat foot pad edema was “comparable reduction in inflammation”.

As to `COc1ccc2c(c1)c(CC(=O)OCCC1CCCCC1)c(C)n2C(=O)c1ccc(Cl)cc1` [Compound 10, Indomethacin cyclohexylethyl ester], the “IC value at which measurement of COX-2 inhibition was stopped” value on COX-2 [1] (tertiary amides) stood at 33.

`COc1ccc2c(c1)c(CC(=O)NCCc1ccccc1)c(C)n2C(=O)c1ccc(Cl)cc1` [Compound 38, Indomethacin-N-(2-phenethyl) amide]: the “inhibition of triple mutant VRV” value in test [2] is listed as “resistant to inhibition”. The “inhibition of Tyr341Ala mutant” value in test [3] is given as “resistant to inhibition”.

As for `COc1ccc2c(c1)c(CC(=O)Nc1ccc(F)cc1)c(C)n2C(=O)c1ccc(Cl)cc1` [Compound 39, Indomethacin-N-(4-fluorophenyl) amide], the IC50 against ovine COX-1 is greater than 66 µM.

As to `COc1ccc2c(c1)c(CC(=O)Nc1cccnc1)c(C)n2C(=O)c1ccc(Cl)cc1` [Compound 47, Indomethacin-N-(3-pyridyl) amide], the IC50 against ovine COX-1 was greater than 66 µM.

On COX-2 [1], `CCn1nccc1NC(=O)Cc1c(C)n(C(=O)c2ccc(Cl)cc2)c2ccc(OC)cc12` [Compound 49, Indomethacin-N-5-((1-ethyl)pyrazolo) amide] had a half-inhibitory concentration (IC50) of 0.71 µM and a Selectivity greater than 94.

As to `CC1=C(CC(=O)O)c2cc(F)ccc2/C1=C\c1ccc(S(C)(=O)=O)cc1` [sulindac sulfone], the “inhibition of COX-2 (in words)” value on COX-2 [4] was “does not inhibit”. Moreover, at COX-1, the “inhibition of COX-1 (in words)” value is “does not inhibit”.

Turning to “Indomethacin 3-pyridyl ester [Compound 24]”, on COX-2 [1], the Selectivity is reported as 50.
